Experimental data published in US20230138395A1, “PHARMACEUTICAL COMPOSITIONS OF A THERAPEUTIC POLYENE MACROLIDE AND METHODS OF THEIR USE” (priority 2020, published 2023).
Converted amounts (≈) assume the structure as drawn. “And” between values parts separate entries of the source, which are not always exact repeats. Equal entries are not always repeated.

Legend:
C. glabrata strains [1] = assay: MIC testing (CLSI M27-A3); assay type: cell-based; parameters: MIC: unit not given beside the values
C. glabrata strains [2] = assay: MFC determination; assay type: cell-based; parameters: MFC: unit not given beside the values
C. parapsilosis = assay: MIC testing (CLSI M27-A3); assay type: cell-based; parameters: MIC: unit not given beside the values
C. tropicalis [3] = assay: MIC testing (CLSI M27-A3); assay type: cell-based
C. tropicalis [4] = assay: MFC determination; assay type: cell-based; settings: C. tropicalis
all Candida strains = assay: MIC testing (CLSI M27-A3), summary; assay type: cell-based
Cr. neoformans strains = assay: MFC determination; assay type: cell-based, Cryptococcus neoformans; settings: Cr. neoformans
[5] = system: individual Aspergillus spp. (Table 12, species not named); assay: MIC testing (CLSI M38-A2), Table 12; assay type: cell-based; settings: Aspergillus sp. of Table 12, caspofungin read as MEC
[6] = system: individual Aspergillus spp. (Table 12, species not named); assay: MFC determination, Table 12; assay type: cell-based; settings: Aspergillus sp. of Table 12
[7] = system: individual Aspergillus spp. (Table 13, species not given); assay: MIC testing (CLSI M38-A2), Table 13; assay type: cell-based; settings: Aspergillus sp. of Table 13, caspofungin read as MEC
[8] = system: individual Aspergillus spp. (Table 14, species not named); assay: MFC determination, Table 14; assay type: cell-based; settings: Aspergillus sp. of Table 14
[9] = system: all Aspergillus strains tested; assay: MIC testing (CLSI M38-A2), summary; assay type: cell-based; settings: caspofungin read as MEC
Fusarium strains [10] = assay: MIC testing (CLSI M38-A2), Table 17; assay type: cell-based, Fusarium spp.; settings: Fusarium strains (Table 17)
Fusarium strains [11] = assay: MFC determination, Table 17; assay type: cell-based, Fusarium spp.; settings: Fusarium strains (Table 17)
C. albicans SC5314 = assay: In vitro activity (MFC) against the infecting strain, Example 18; assay type: cell-based, Candida albicans; settings: Candida albicans, read-out: MFC
[12] = individual C. glabrata strain with elevated MICs to non-polyene comparators (Table 22), listed as Cas

With `CC[C@H](C)C[C@H](C)CCCCCCCCC(=O)N[C@H]1C[C@@H](O)[C@@H](NCCN)NC(=O)[C@@H]2[C@@H](O)CCN2C(=O)[C@H]([C@H](O)CCN)NC(=O)[C@H]([C@H](O)[C@@H](O)c2ccc(O)cc2)NC(=O)[C@@H]2C[C@@H](O)CN2C(=O)[C@H]([C@@H](C)O)NC1=O` [Caspofungin, caspofungin] the “MIC Range” value (C. glabrata strains [1]; C. glabrata strains, in µg/mL) was 0.25-8, the MIC50 (C. glabrata strains [1]; C. glabrata, inhibits 50% of strains) was 0.5 µg/mL (≈ 0.457 µM) and the MIC90 (C. glabrata strains [1]; C. glabrata, inhibits 90% of strains) was 2 µg/mL (≈ 1.83 µM). The MIC (C. glabrata strains [1]; [12]) was 2 (2×) and 1 and 4 and 8, the MFC50 (C. glabrata strains [2]; C. glabrata, kills 50% of strains) was 1 µg/mL (≈ 0.915 µM) and the MFC90 (C. glabrata strains [2]; C. glabrata, kills 90% of strains) was 32 µg/mL (≈ 29.3 µM). For the same compound, the MFC (C. glabrata strains [2]; [12]) was 32 (3×) and 16 and >32, the “MIC Range” value (C. parapsilosis; C. parapsilosis strains, in µg/mL) was 0.25-2 and the MIC50 (C. parapsilosis; C. parapsilosis, inhibits 50% of strains) was 0.5 µg/mL (≈ 0.457 µM). The MIC90 (C. parapsilosis; C. parapsilosis, inhibits 90% of strains) was 2 µg/mL (≈ 1.83 µM), the MIC (C. parapsilosis; individual C. parapsilosis strain with elevated MICs to non-polyene comparators (Table 22), in µg/mL) was 2 and the “MIC Range” value (C. tropicalis [3]; C. tropicalis strains, in µg/mL) was 0.06-2. It also gave an MIC50 (C. tropicalis [3]; C. tropicalis, inhibits 50% of strains) of 0.25 µg/mL (≈ 0.229 µM), an MIC90 (C. tropicalis [3]; C. tropicalis, inhibits 90% of strains) of 0.5 µg/mL (≈ 0.457 µM) and an MFC50 (C. tropicalis [4]; kills 50% of strains) of 32 µg/mL (≈ 29.3 µM). For the same compound, the MFC90 (C. tropicalis [4]; kills 90% of strains) was over 32 µg/mL, the “MIC Range” value (all Candida strains; in µg/mL) was 0.06-16 and the MIC50 (all Candida strains; inhibits 50% of strains) was 0.5 µg/mL (≈ 0.457 µM). The MIC90 (all Candida strains; inhibits 90% of strains) was 2 µg/mL (≈ 1.83 µM), the MFC50 (Cr. neoformans strains; kills 50% of strains) was over 32 µg/mL and the MFC90 (Cr. neoformans strains; kills 90% of strains) was over 32 µg/mL. The “MIC Range” value ([5]; in µg/mL) was 0.125-8, the MIC50 ([5]; inhibits 50% of strains) was 0.25 µg/mL (≈ 0.229 µM) and the MIC90 ([5]; inhibits 90% of strains) was 0.5 µg/mL (≈ 0.457 µM). The MFC50 ([6]; kills 50% of strains) was over 32 µg/mL, the MFC90 ([6]; kills 90% of strains) was over 32 µg/mL and the “MIC Range” value ([7]; in µg/mL) was 0.25-1. It also gave an MIC50 ([7]; inhibits 50% of strains) of 0.25 µg/mL (≈ 0.229 µM), an MIC90 ([7]; inhibits 90% of strains) of 0.5 µg/mL (≈ 0.457 µM) and an MFC50 ([8]; kills 50% of strains) of over 32 µg/mL. The MFC90 ([8]; kills 90% of strains) was over 32 µg/mL, the “MIC Range” value ([9]; in µg/mL) was 0.125-8 and the MIC50 ([9]; inhibits 50% of strains) was 0.25 µg/mL (≈ 0.229 µM). The MIC90 ([9]; inhibits 90% of strains) was 0.5 µg/mL (≈ 0.457 µM), the “MIC Range” value (Fusarium strains [10]; in µg/mL) was 1-64 and the MIC50 (Fusarium strains [10]; inhibits 50% of strains) was 32 µg/mL (≈ 29.3 µM). The MIC90 (Fusarium strains [10]; inhibits 90% of strains) was 32 µg/mL (≈ 29.3 µM), the “MFC Range” value (Fusarium strains [11]; in µg/mL) was over 32 and the MFC50 (Fusarium strains [11]; kills 50% of strains) was over 32 µg/mL. It also gave an MFC90 (Fusarium strains [11]; kills 90% of strains) of over 32 µg/mL and an MFC (C. albicans SC5314) of 32 µg/mL (≈ 29.3 µM).
